Structures are written as SMILES. Counter-ions that a name gives are not always drawn.

The subject of the experiment is rat carrageenin-induced pleuritis. In words: Inhibitory effect on rat carrageenin-induced pleuritis (dye leakage into pleural cavity). It is filed as in vivo, Wistar rats. As to conditions: NFLX-DX 13.4 mg/kg orally 30 min before induction, n = 7. The procedure:
Inhibitory Effect of the Compound on Rat Carrageenin-induced Pleuritis The inhibitory effect of norfloxacin-dexamethasone ester hydrochloride on rat carrageenin-induced pleuritis was evaluated. [Test substance] Norfloxacin-dexamethasone ester hydrochloride (abbreviatedname: NFLX-DX) Wistar rats weighing about 200 g were used. Two groups receiving (1) distilled water (5 ml/kg) and (2) NFLX-DX (13.4 mg/kg), respectively, were provided. Under pentobarbital anesthesia, 0.1 ml of 2% λ-carrageenin was injected into the rat pleura to induce pleuritis. Five hours after the construction of pleuritis, a 5% aqueous solution of Pontamine Sky Blue (2 mg/kg) was injected intravenously, and 20 minutes later the rat was sacrificed and the pleural exudate was collected using a tube. The amount of dye leakage in the pleural cavity (μg/site) was estimated from the amount and absorbance (625 nm) of the exudate sample (ml) by the calibration curve method. The test substance was administered orally (5 ml/kg) 30 minutes before induction of inflammation.

One may read the % Inhibition as the relative decrease from the control value, in per cent. Low readings indicate a response near the control, high ones a response far below the control. `CCn1cc(C(=O)OCC(=O)[C@@]2(O)[C@H](C)C[C@H]3[C@@H]4CCC5=CC(=O)C=C[C@]5(C)[C@@]4(F)[C@@H](O)C[C@@]32C)c(=O)c2cc(F)c(N3CCNCC3)cc21` [NFLX-DX, 9-Fluoro-11β,17,21-trihydroxy-16α-methyl-1,4-pregnadiene-3, 20-dione-21-[1-ethyl-6-fluoro-1,4-dihydro-7-(1-piperazinyl)-4-oxo-3-quinolinecarboxylate]hydrochloride] yielded a Dye leakage (mean ± standard error, * p < 0.01 vs control (distilled water, 74.81 ± 10.70)) of 20.02 ± 3.80 μg/site. Moreover, under “inhibition of dye leakage vs control (distilled water)”, the “% Inhibition” value is reported as 73.0%.

Values taken from patent US5599807A, “Steroid derivatives” (Senju Pharmaceutical Co., Ltd., priority 1993, dated 1997).
